Patent US10640512B2, “Imidazopyrazinamine phenyl derivative and use thereof” (HANGZHOU SANYINTAI PHARMACEUTICAL TECHNOLOGY CO., LTD., priority 2016, dated 2020)
Read-outs that look alike come from different tables or passages of the source.

How the values were obtained:
HCK = HCK (Homo sapiens, UniProt P08631); assay: Caliper Mobility Shift Assay, kinase inhibition; format: biochemical
From the text: (§1) The test method used was the Caliper Mobility Shift Assay, the kinases to be tested are BTK, ITK, TEC, EGFR, HER2, HER4, JAK3, HCK, LYN, SRC and SYK. The standard reference compound used was staurosporine.

LYN = LYN (Homo sapiens, UniProt P07948); assay: Caliper Mobility Shift Assay, kinase inhibition; format: biochemical
From the text: as §1

SRC = SRC (Homo sapiens, UniProt P12931); assay: Caliper Mobility Shift Assay, kinase inhibition; format: biochemical
From the text: as §1

SYK = SYK (Homo sapiens, UniProt P43405); assay: Caliper Mobility Shift Assay, kinase inhibition; format: biochemical
From the text: as §1

[1] = In vitro liver microsomal metabolism (mouse); format: in vitro ADME; conditions: for half-life / CLint scaled: mouse liver microsomes; for half-life: NADPH, 37° C., read-out: T1/2 in liver microsomes; for CLint scaled: calculated from elimination half life, read-out: intrinsic clearance (CLint)
Method: (§2) In addition, in vitro liver microsomal metabolism of the compounds of the present invention was also tested. The test compound was co-incubated with NADPH and mouse or human liver microsomes in a 37° C. water bath pot, a reaction was initiated by adding the test compound. […] was taken at different time points (0, 10, 20, 40 and 60 minutes) and transferred to acetonitrile containing an internal standard. After proteins were precipitated, the supernatant was obtained by centrifugation. The test compound in the supernatant was analyzed by the LC-MS/MS method. The intrinsic clearance in vitro was calculated according to the elimination half life of the test compound in the incubation system. Midazolam was subjected to parallel incubation as a positive control. […] Tests of the other compounds of the present invention also had similar results.

[2] = In vitro liver microsomal metabolism (human); format: in vitro ADME; conditions: human liver microsomes; for half-life: NADPH, 37° C., read-out: T1/2 in liver microsomes; for CLint scaled: calculated from elimination half life, read-out: intrinsic clearance (CLint)
Method: as §2

[3] = disclosed in a conference paper (2nd International Conference on New Concepts in B-cell Malignancies, 2016); cited from earlier work
BTK = BTK (Homo sapiens, UniProt Q06187); assay: Caliper Mobility Shift Assay, kinase inhibition; format: biochemical; conditions: for IC50: BTK enzyme activity; for inhibiting effects on BTK kinase (in words): summary of Table 1
From the text: as §1

EGFR = EGFR (Homo sapiens, UniProt P00533); assay: Caliper Mobility Shift Assay, kinase inhibition; format: biochemical
From the text: as §1

HER2 = HER2 (Homo sapiens, UniProt P04626); assay: Caliper Mobility Shift Assay, kinase inhibition; format: biochemical
From the text: as §1

HER4 = HER4 (Homo sapiens, UniProt Q15303); assay: Caliper Mobility Shift Assay, kinase inhibition; format: biochemical
From the text: as §1

ITK = biological target: T1, ITK (Homo sapiens, UniProt Q08881); assay: Caliper Mobility Shift Assay, kinase inhibition; format: biochemical
T1 sequence (Q08881 1-620): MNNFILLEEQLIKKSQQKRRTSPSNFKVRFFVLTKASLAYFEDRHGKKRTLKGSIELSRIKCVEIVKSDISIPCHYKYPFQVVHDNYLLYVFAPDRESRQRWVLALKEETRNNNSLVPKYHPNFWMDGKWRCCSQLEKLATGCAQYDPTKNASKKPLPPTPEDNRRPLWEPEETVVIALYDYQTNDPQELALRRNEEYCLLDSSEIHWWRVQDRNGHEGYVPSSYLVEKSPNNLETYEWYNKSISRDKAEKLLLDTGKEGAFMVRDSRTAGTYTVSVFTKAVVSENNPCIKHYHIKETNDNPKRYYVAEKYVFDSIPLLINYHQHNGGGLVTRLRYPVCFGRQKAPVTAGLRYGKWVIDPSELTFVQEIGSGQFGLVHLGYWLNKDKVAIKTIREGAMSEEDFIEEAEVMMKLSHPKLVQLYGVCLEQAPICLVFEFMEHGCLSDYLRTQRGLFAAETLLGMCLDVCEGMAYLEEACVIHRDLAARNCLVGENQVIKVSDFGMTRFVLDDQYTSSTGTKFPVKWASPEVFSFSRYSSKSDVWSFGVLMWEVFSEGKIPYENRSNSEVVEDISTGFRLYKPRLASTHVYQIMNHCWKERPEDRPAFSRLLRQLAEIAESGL
From the text: as §1

JAK3 = biological target: T2, JAK3 (Homo sapiens, UniProt P52333); assay: Caliper Mobility Shift Assay, kinase inhibition; format: biochemical
T2 sequence (P52333 1-1124): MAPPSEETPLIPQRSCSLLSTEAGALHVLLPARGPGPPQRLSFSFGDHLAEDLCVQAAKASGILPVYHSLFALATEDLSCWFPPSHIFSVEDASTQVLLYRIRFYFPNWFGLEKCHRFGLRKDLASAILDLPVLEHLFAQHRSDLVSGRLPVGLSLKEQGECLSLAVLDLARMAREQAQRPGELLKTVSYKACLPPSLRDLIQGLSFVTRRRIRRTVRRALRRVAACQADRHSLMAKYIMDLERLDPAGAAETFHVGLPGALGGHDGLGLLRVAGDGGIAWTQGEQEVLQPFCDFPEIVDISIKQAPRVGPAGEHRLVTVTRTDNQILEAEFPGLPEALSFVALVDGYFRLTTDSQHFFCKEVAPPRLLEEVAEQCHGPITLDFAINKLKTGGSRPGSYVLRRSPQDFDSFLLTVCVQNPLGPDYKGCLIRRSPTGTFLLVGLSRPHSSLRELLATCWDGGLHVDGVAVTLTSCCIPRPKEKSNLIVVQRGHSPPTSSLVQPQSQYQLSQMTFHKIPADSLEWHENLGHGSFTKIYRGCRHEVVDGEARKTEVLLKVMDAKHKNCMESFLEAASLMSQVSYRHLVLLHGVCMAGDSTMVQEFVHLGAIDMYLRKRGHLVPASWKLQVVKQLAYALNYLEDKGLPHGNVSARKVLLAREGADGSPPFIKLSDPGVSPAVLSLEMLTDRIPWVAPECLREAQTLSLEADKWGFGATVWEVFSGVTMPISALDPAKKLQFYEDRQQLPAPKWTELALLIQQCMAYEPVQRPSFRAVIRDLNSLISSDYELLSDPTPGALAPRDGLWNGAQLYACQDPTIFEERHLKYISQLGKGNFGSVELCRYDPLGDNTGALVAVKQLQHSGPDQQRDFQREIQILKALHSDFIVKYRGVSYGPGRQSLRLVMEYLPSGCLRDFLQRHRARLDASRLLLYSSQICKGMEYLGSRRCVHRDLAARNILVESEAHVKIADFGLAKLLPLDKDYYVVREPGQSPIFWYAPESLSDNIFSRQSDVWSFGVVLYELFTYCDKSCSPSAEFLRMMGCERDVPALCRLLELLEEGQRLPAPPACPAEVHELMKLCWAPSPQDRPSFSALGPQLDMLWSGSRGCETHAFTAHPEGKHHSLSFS
From the text: as §1

TEC = biological target: T3, TEC (Homo sapiens, UniProt P42680); assay: Caliper Mobility Shift Assay, kinase inhibition; format: biochemical
T3 sequence (P42680 1-631): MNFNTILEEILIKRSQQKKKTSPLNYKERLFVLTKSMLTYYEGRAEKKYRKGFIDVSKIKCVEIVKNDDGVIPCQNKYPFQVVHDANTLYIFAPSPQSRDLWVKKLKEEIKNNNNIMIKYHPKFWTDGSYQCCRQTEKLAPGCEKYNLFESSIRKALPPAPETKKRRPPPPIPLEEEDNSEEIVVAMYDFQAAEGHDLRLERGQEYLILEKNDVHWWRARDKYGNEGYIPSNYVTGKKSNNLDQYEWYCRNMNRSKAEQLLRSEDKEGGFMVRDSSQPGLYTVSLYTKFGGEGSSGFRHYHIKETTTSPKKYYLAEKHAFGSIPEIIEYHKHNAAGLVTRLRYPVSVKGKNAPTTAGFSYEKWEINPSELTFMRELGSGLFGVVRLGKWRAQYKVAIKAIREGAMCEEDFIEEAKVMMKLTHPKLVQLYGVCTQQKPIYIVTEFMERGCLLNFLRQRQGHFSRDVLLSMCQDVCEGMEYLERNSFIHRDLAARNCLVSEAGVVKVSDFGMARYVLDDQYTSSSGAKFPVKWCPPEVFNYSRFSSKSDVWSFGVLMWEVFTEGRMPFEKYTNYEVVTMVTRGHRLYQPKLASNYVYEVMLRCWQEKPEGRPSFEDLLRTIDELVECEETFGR
From the text: as §1

[4] = Pharmacokinetic properties in CD-1 mouse; format: in vivo; conditions: both sexes, plasma; for AUC(0-t): read-out: AUClast (area under the curve); for half-life: read-out: Terminal t1/2 (half life) (converted)
Method: Experiment animals: CD-1 mouse, males and females; body weight: 20-25 g;
Route of administration: oral/intravenous. […]
Sample collection: blood samples were collected at the following time points: 5 minutes, 15 minutes, 30 minutes, 1 hours, 2 hours, 4 hours, 8 hours and 24 hours after administration.
Sample analysis: The collected samples were tested using the LC-MS/MS method. The model of the instrument used was API4000.
Pharmacokinetic data analysis: the obtained plasma concentration data were fitted and calculated according to the non-compartmental model method using WinNolin.
In Table 3, CL: clearance. VSS: apparent volume of distribution at steady state. Terminal t1/2: half life. AUClast: area under the curve. MRTINF: average residence time. Tmax: peak time. Cmax: peak concentration. F: bioavailability, refers to the fraction of oral dosage actually reaching the blood circulation.

[5] = system: ITK, TEC, EGFR, HER2, HER4, JAK3, HCK, LYN, SRC and SYK; assay: Kinase selectivity panel, Caliper Mobility Shift Assay; format: biochemical; conditions: summary of Table 2
Method: The semi-inhibitory concentration IC50 of the compound (the concentration of the compound required to inhibit the enzyme activity to 50%) is determined by mixing a fixed enzyme with a specific substrate and different concentrations of the test compounds. The test method used was the Caliper Mobility Shift Assay, the kinases to be tested are BTK, ITK, TEC, EGFR, HER2, HER4, JAK3, HCK, LYN, SRC and SYK. The standard reference compound used was staurosporine.
The results of experiments on the inhibitions of ITK, TEC, EGFR, HER2, HER4, JAK3, HCK, LYN, SRC and SYK enzyme activities by the target compound Id were summarized in Table 2. […] This selective inhibiting effect has important values for the treatment of diseases such as rheumatoid arthritis, B cell lymphoma, leukemia, multiple myeloma, allergies, asthma, multiple sclerosis, type I diabetes and systemic lupus erythematosus. The tests of other compounds of the present invention also have similar results.

[6] = 3 mg/kg, intravenous injection, single administration
[7] = 15 mg/kg, oral, single administration

Chain of BTK (Q06187 whole entry): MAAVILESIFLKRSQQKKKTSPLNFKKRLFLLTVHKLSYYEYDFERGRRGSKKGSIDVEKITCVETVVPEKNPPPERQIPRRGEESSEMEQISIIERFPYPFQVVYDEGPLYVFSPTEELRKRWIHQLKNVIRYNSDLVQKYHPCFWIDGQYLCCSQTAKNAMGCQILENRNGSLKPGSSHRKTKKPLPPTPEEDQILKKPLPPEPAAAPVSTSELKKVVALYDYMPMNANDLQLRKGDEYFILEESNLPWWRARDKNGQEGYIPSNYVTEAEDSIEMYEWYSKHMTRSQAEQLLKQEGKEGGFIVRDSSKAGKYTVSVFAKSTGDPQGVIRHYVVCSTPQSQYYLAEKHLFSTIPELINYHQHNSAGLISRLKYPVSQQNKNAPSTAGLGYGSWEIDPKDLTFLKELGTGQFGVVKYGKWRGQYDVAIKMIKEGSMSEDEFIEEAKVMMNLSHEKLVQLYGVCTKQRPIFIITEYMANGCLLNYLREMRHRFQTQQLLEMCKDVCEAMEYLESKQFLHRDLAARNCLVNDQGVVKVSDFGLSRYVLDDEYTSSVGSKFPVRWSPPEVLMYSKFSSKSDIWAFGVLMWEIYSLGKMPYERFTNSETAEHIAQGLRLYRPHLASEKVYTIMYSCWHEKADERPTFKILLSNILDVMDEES
Chain of SRC (P12931 whole entry): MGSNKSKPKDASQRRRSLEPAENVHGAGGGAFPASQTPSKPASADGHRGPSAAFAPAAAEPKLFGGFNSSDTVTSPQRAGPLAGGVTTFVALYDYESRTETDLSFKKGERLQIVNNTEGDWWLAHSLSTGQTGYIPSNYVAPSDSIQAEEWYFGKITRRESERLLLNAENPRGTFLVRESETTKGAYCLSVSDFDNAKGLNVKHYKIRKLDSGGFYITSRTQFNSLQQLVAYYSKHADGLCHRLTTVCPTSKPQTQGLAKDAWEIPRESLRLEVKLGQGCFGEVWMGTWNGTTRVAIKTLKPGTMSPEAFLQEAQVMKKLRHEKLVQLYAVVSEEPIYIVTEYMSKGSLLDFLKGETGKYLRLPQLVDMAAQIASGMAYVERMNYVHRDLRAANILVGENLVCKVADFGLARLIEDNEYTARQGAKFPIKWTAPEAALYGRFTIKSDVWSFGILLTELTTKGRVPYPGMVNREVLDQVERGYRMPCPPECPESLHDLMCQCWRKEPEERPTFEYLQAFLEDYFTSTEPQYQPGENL
Chain of HCK (P08631 whole entry): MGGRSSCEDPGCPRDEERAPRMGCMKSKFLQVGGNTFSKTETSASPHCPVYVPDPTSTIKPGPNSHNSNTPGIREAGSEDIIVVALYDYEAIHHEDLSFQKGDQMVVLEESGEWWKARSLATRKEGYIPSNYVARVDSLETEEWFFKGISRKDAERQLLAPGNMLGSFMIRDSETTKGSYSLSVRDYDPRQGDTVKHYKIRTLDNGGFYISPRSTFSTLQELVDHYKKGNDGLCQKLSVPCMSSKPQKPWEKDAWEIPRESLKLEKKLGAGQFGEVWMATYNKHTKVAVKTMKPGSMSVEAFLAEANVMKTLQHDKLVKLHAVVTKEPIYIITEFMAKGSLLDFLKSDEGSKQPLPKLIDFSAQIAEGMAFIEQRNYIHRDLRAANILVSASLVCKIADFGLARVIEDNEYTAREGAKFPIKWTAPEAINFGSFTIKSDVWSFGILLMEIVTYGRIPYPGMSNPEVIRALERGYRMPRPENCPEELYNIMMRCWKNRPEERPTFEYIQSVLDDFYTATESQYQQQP
Chain of LYN (P07948 whole entry): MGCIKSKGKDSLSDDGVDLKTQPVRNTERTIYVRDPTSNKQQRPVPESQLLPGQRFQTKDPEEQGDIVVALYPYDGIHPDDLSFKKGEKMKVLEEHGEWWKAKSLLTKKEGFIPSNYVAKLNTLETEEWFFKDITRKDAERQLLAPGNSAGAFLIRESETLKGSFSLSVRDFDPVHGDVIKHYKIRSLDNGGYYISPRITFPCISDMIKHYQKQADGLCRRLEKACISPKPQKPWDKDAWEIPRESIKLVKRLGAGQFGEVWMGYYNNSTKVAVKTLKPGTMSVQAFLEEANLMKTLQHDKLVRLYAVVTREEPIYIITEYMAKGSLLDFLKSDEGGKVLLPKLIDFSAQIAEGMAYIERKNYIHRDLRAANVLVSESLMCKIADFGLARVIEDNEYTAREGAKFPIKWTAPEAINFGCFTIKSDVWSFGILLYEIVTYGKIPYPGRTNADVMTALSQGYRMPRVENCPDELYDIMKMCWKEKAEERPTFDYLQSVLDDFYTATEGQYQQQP
Chain of HER4 (Q15303 26-1308): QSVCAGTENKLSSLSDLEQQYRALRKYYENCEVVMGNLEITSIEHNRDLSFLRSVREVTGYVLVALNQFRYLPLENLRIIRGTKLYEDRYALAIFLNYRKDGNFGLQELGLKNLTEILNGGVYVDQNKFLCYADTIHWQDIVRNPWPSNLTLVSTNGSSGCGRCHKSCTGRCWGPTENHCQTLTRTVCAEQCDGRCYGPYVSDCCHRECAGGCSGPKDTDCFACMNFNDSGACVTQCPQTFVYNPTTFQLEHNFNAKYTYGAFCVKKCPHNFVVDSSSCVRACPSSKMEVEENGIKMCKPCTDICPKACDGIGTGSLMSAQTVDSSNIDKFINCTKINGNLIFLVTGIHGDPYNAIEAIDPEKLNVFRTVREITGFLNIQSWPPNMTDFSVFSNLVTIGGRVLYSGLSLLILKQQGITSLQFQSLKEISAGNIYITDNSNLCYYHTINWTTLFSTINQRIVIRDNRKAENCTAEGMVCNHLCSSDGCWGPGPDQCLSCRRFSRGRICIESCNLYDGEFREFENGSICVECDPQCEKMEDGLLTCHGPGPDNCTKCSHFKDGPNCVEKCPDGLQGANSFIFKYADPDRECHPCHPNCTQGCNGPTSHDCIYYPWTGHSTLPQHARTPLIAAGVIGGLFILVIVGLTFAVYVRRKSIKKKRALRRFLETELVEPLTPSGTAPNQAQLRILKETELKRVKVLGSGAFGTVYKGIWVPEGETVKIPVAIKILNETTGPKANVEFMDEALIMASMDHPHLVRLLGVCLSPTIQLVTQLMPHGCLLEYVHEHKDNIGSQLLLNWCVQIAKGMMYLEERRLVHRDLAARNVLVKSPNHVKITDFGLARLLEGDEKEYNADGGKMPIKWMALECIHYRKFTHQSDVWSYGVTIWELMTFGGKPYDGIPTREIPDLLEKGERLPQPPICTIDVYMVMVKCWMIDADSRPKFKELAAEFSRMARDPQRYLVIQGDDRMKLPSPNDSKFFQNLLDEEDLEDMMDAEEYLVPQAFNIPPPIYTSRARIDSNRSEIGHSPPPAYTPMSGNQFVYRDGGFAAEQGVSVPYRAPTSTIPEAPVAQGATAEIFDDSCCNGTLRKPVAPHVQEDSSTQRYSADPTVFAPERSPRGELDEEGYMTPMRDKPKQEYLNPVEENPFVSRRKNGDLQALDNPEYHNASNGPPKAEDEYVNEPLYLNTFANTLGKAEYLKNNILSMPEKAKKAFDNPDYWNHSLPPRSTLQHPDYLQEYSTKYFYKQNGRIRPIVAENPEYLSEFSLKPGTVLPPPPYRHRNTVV
Chain of EGFR (P00533 25-1210): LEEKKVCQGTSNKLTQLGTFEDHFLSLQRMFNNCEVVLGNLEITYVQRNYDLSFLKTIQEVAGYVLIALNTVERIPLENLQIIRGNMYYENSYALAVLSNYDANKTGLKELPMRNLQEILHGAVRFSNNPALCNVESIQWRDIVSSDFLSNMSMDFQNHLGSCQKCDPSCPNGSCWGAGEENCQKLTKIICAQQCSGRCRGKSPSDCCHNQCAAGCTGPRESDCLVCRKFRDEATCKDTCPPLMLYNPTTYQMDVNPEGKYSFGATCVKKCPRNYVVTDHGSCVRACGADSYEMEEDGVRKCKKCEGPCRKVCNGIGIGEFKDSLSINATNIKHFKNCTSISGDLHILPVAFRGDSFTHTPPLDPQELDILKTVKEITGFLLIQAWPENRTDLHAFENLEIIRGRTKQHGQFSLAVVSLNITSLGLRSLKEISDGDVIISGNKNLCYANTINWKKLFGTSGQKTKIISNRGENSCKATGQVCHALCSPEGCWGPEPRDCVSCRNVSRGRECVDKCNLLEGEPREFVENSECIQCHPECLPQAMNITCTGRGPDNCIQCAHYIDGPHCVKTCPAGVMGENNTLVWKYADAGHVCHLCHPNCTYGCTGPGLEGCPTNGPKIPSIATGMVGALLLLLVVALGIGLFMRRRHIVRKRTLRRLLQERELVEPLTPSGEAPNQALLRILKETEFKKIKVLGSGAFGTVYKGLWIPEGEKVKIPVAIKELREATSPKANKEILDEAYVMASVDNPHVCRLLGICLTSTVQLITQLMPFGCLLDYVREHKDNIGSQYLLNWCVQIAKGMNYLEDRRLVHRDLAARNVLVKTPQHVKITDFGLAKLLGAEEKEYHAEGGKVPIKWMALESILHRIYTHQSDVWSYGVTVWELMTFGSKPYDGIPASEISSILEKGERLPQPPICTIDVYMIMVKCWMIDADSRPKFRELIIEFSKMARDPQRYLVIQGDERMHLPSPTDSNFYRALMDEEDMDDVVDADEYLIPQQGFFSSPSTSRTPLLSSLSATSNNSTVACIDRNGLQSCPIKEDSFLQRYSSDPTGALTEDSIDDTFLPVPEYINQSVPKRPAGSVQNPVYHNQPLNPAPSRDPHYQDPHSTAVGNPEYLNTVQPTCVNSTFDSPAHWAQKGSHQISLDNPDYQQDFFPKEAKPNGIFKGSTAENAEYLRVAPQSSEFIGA

CC#CC(=O)N1CCC[C@H]1c1nc(-c2ccc(C(=O)Nc3ccccn3)cc2)c2c(N)nccn12 [Acalabrutinib, acalabrutinib, reference compound]
IC50 (HCK): > 1000 nM
IC50 (LYN): > 1000 nM
IC50 (SRC): > 1000 nM
IC50 (SYK): > 1000 nM
half-life [1]: 23.3 min
CLint scaled [1]: 234 mL/min/kg
half-life [2]: 11.9 min
CLint scaled [2]: 146 mL/min/kg
half life [3]: 67.8 min

CC#CC(=O)N1CCC[C@H]1c1nc(-c2ccc(NC(=O)c3ccccn3)cc2)c2c(N)nccn12 [Compound of formula Ia]
IC50 (BTK): 415 nM
inhibiting effects on BTK kinase (in words) (BTK): strong inhibiting effects

CC#CC(=O)N1CCC[C@H]1c1nc(-c2ccc(C(=O)Nc3ccccn3)c(C)c2)c2c(N)nccn12 [Compound of formula Ib]
IC50 (BTK): 50 nM
inhibiting effects on BTK kinase (in words) (BTK): very strong inhibiting effects

CC#CC(=O)N1CCC[C@H]1c1nc(-c2ccc(Oc3ccccn3)cc2)c2c(N)nccn12 [Compound of formula Ic]
IC50 (BTK): 577 nM
inhibiting effects on BTK kinase (in words) (BTK): strong inhibiting effects

CC#CC(=O)N1CCC[C@H]1c1nc(-c2ccc(Oc3ccccc3)cc2)c2c(N)nccn12 [Compound of formula Id]
IC50 (BTK): 4.8 nM
inhibiting effects on BTK kinase (in words) (BTK): very strong inhibiting effects
IC50 (EGFR): > 1000 nM
IC50 (HCK): > 1000 nM
IC50 (HER2): > 1000 nM
IC50 (HER4): > 1000 nM
IC50 (ITK): > 1000 nM
IC50 (JAK3): > 1000 nM
IC50 (LYN): > 1000 nM
IC50 (SRC): > 1000 nM
IC50 (SYK): > 1000 nM
IC50 (TEC): 40 nM
AUC(0-t) [4, 6]: 661 ng·h/mL
clearance ([4]; 3 mg/kg, intravenous injection, single administration, read-out: CL (clearance) (converted)): 77 mL/min/kg
MRT inf ([4]; 3 mg/kg, intravenous injection, single administration, read-out: MRTINF (average residence time)): 17.8 min
half-life [4, 6]: 17.2 min
Vd ([4]; 3 mg/kg, intravenous injection, single administration, read-out: Vss (apparent volume of distribution at steady state)): 1.3 L/kg
bioavailability ([4]; 15 mg/kg oral vs 3 mg/kg intravenous, read-out: F (bioavailability)): 56.4%
AUC(0-t) [4, 7]: 1880 ng·h/mL
Cmax ([4]; 15 mg/kg, oral, single administration, read-out: Cmax (peak concentration)): 848 ng/mL
half-life [4, 7]: 98.4 min
Tmax ([4]; 15 mg/kg, oral, single administration, read-out: Tmax (peak time)): 15 min
half-life [1]: 8.26 min
CLint scaled [1]: 661 mL/min/kg
metabolism rate relative to acalabrutinib (in words) ([1]; mouse or human liver microsomes): metabolized faster than acalabrutinib
half-life [2]: 3.13 min
CLint scaled [2]: 555 mL/min/kg
selective inhibiting activity (in words) [5]: good
